Reference: patent US10167297B2, “Substituted pyridine compounds having herbicidal activity” (BASF SE, priority 2014, dated 2019)

Columns and labels:
Format in all cases: in vivo
Poa annua = test: greenhouse post-emergence herbicidal activity (use examples); conditions: POAAN, 0.031 kg/ha, scale 0 to 100
Source text: (§1) The seeds of the test plants were sown separately for each species. For the pre-emergence treatment, the active ingredients, which had been suspended or emulsified in water, were applied directly after sowing by means of finely distributing nozzles. The containers were irrigated gently to promote germination and growth and subsequently covered with transparent plastic hoods until the plants had rooted. This cover caused uniform germination of the test plants, unless this had been impaired by the active ingredients. For the post-emergence treatment, the test plants were first grown to a height of 3 to 15 cm, depending on the plant habit, and only then treated with the active ingredients which had been suspended or emulsified in water. For this purpose, the test plants were either sown directly and grown in the same containers, or they were first grown separately as seedlings and transplanted into the test containers a few days prior to treatment. Depending on the species, the plants were kept at 10-25° C. or 20-35° C., respectively. The test period extended over 2 to 4 weeks. During this time, the plants were tended, and their response to the individual treatments was evaluated. Evaluation was carried out using a scale from 0 to 100. 100 means no emergence of the plants, or complete destruction of at least the aerial moieties, and 0 means no damage, or normal course of growth. A good herbicidal activity is given at values of at least 70 and a very good herbicidal activity is given at values of at least 85. The plants used in the greenhouse experiments were of the following species: [table]

Stellaria media = test: as above; conditions: STEME, scale 0 to 100
Source text: as §1

Thlaspi arvense = test: as above; conditions: THLAR, 0.031 kg/ha, scale 0 to 100
Source text: as §1

Zea mays [1] = test: greenhouse post-emergence herbicidal activity on crop plant corn (use examples); conditions: ZEAMX (corn, crop plant), scale 0 to 100; for plant injury at 125 g/ha: 0.125 kg/ha
Source text: as §1

Setaria faberi = test: greenhouse post-emergence herbicidal activity (use examples); conditions: SETFA, scale 0 to 100
Source text: as §1

Amaranthus retroflexus = test: as above; conditions: AMARE, scale 0 to 100
Source text: as §1

Echinocloa crus-galli [2] = test: as above; conditions: Echinochloa crus-galli, ECHCG, scale 0 to 100
Source text: as §1

Abuthilon avicennae = test: comparative greenhouse post-emergence herbicidal activity; conditions: ABUTH, 20 days, scale 0 to 100
Protocol: (§2) The herbicidal activity of the compounds I-5 (N-[2,6-dichloro-3-(8-hydroxy-6,6-dioxo-5H-thiopyrano[4,3-b]pyridin-7-yl)phenyl]-N-methyl-acetamide) and 1-19 (Methyl N-[2,6-dichloro-3-(8-hydroxy-5,5-dimethyl-6,6-dioxo-thiopyrano[4,3-b]pyridin-7-yl)phenyl]-N-methyl-carbamate) according to this invention was tested in comparison with compound I-5 disclosed on page 147 of WO 2012/084755 A1 (not of the invention). These comparative experiments were performed in greenhouse by using the following procedure:
(§3) The culture containers used were plastic flowerpots containing loamy sand with approximately 3.0% of humus as the substrate. The seeds of the test plants were sown separately for each species.
(§4) For the post-emergence treatment, the test plants were first grown to a height of 3 to 15 cm, depending on the plant habit, and only then treated with the active ingredients which had been suspended or emulsified in water using a volume of 375 I/ha and 1% of an Adjuvant. For this purpose, the test plants were either sown directly and grown in the same containers, or they were first grown separately as seedlings and transplanted into the test containers a few days prior to treatment.
(§5) Depending on the species, the plants were kept at 10-25° C. (cold season grasses) or 20-35° C. (warm season grasses), respectively.
(§6) The test period extended over 20 days. During this time, the plants were tended, and their response to the individual treatments was evaluated.
(§7) Evaluation was carried out using a scale from 0 to 100. 100 means complete destruction of at least the aerial moieties, and 0 means no damage, or normal course of growth. A good herbicidal activity is given at values of at least 70 and a very good herbicidal activity is given at values of at least 85.
(§8) The plants used in the greenhouse experiments were of the following species:
(§9) The application rates in the post-emergence treatment were 0.1, 0.05 and 0.025 kg/ha, respectively.

Ambrosia artimisifolio = test: as above; conditions: AMBEL, 20 days, scale 0 to 100
Protocol: as §2, §3, §4, §5, §6, §7, §8, §9

Avena Fatua = test: as above; conditions: AVEFA, 20 days, scale 0 to 100
Protocol: as §2, §3, §4, §5, §6, §7, §8, §9

Bromus steliris = test: as above; conditions: BROST, 20 days, scale 0 to 100
Protocol: as §2, §3, §4, §5, §6, §7, §8, §9

Digitaria sanguine = test: as above; conditions: DIGSA, 20 days, scale 0 to 100
Protocol: as §2, §3, §4, §5, §6, §7, §8, §9

Echinocloa crus-galli [3] = test: as above; conditions: ECHCG, 20 days, scale 0 to 100
Protocol: as §2, §3, §4, §5, §6, §7, §8, §9

Lolium Multiflori = test: as above; conditions: LOLMU, 20 days, scale 0 to 100
Protocol: as §2, §3, §4, §5, §6, §7, §8, §9

Polygonum convolvulus [4] = test: as above; conditions: POLCO, 20 days, scale 0 to 100
Protocol: as §2, §3, §4, §5, §6, §7, §8, §9

Setaria viridis [5] = test: as above; conditions: SETVI, 20 days, scale 0 to 100
Protocol: as §2, §3, §4, §5, §6, §7, §8, §9

Zea mays [6] = test: comparative greenhouse post-emergence herbicidal activity on crop plant corn; conditions: ZEAMX (corn, crop plant), 20 days, scale 0 to 100
Protocol: as §2, §3, §4, §5, §6, §7, §8, §9

Polygonum convolvulus [7] = test: greenhouse post-emergence herbicidal activity (use examples); conditions: POLCO, 0.063 kg/ha, scale 0 to 100
Source text: as §1

Setaria viridis [8] = test: as above; conditions: SETVI, 0.063 kg/ha, scale 0 to 100
Source text: as §1

Chenopodium album = test: as above; conditions: CHEAL, 0.125 kg/ha, scale 0 to 100
Source text: as §1

Row | Structure (SMILES) | plant injury at 125 g/ha (Zea mays [1]) [%] | Herbicidal activity (Abuthilon avicennae; 0.025 kg/ha) | Herbicidal activity (Abuthilon avicennae; 0.05 kg/ha) | Herbicidal activity (Abuthilon avicennae; 0.1 kg/ha) | Herbicidal activity (Ambrosia artimisifolio; 0.025 kg/ha) | Herbicidal activity (Ambrosia artimisifolio; 0.05 kg/ha) | Herbicidal activity (Ambrosia artimisifolio; 0.1 kg/ha) | Herbicidal activity (Avena Fatua; 0.025 kg/ha) | Herbicidal activity (Avena Fatua; 0.05 kg/ha) | Herbicidal activity (Avena Fatua; 0.1 kg/ha) | Herbicidal activity (Bromus steliris; 0.025 kg/ha) | Herbicidal activity (Bromus steliris; 0.05 kg/ha) | Herbicidal activity (Bromus steliris; 0.1 kg/ha) | Herbicidal activity (Digitaria sanguine; 0.025 kg/ha) | Herbicidal activity (Digitaria sanguine; 0.05 kg/ha) | Herbicidal activity (Digitaria sanguine; 0.1 kg/ha) | Herbicidal activity (Echinocloa crus-galli [3]; 0.025 kg/ha) | Herbicidal activity (Echinocloa crus-galli [3]; 0.05 kg/ha) | Herbicidal activity (Echinocloa crus-galli [3]; 0.1 kg/ha) | Herbicidal activity (Lolium Multiflori; 0.025 kg/ha) | other results
1 | CCC(=O)N(C)c1c(Cl)ccc(C2=C(O)c3ncccc3C(C)(C)S2(=O)=O)c1Cl [Compound I-10, N-[2,6-dichloro-3-(8-hydroxy-5,5-dimethyl-6,6-dioxo-thiopyrano[4,3-b]pyridin-7-yl)phenyl]-N-methyl-propanamide] | – | – | – | – | – | – | – | – | – | – | – | – | – | – | – | – | – | – | – | – | Herbicidal activity (Poa annua): 98; Herbicidal activity (Stellaria media; 0.031 kg/ha): 100; Herbicidal activity (Thlaspi arvense): 100; plant injury at 31 g/ha (Zea mays [1]; 0.031 kg/ha): 30%
2 | CN(C(=O)C(F)F)c1c(Cl)ccc(C2=C(O)c3ncccc3C(C)(C)S2(=O)=O)c1Cl [Compound I-18, N-[2,6-dichloro-3-(8-hydroxy-5,5-dimethyl-6,6-dioxo-thiopyrano[4,3-b]pyridin-7-yl)phenyl]-2,2-difluoro-N-methyl-acetamide] | 30 | – | – | – | – | – | – | – | – | – | – | – | – | – | – | – | – | – | – | – | Herbicidal activity (Setaria faberi; 0.125 kg/ha): 98; Herbicidal activity (Stellaria media; 0.125 kg/ha): 100
3 | COC(=O)N(C)c1c(Cl)ccc(C2=C(O)c3ncccc3C(C)(C)S2(=O)=O)c1Cl [Compound I-19, Methyl N-[2,6-dichloro-3-(8-hydroxy-5,5-dimethyl-6,6-dioxo-thiopyrano[4,3-b]pyridin-7-yl)phenyl]-N-methyl-carbamate] | – | 75 | 85 | 98 | 85 | 95 | 90 | 50 | 80 | 90 | 80 | 85 | 95 | 95 | 98 | 95 | 85 | 90 | 95 | 25 | Herbicidal activity (Amaranthus retroflexus; 0.050 kg/ha): 98; pest or weed control at 50 g/ha (Echinocloa crus-galli [2]; 0.050 kg/ha): 95%; Herbicidal activity (Setaria faberi; 0.050 kg/ha): 98; plant injury at 50 g/ha (Zea mays [1]; 0.050 kg/ha): 20%; Herbicidal activity (Lolium Multiflori; 0.05 kg/ha): 35; Herbicidal activity (Lolium Multiflori; 0.1 kg/ha): 75; Herbicidal activity (Polygonum convolvulus [4]; 0.025 kg/ha): 45; Herbicidal activity (Polygonum convolvulus [4]; 0.05 kg/ha): 45; Herbicidal activity (Polygonum convolvulus [4]; 0.1 kg/ha): 95; Herbicidal activity (Setaria viridis [5]; 0.025 kg/ha): 85; Herbicidal activity (Setaria viridis [5]; 0.05 kg/ha): 100; Herbicidal activity (Setaria viridis [5]; 0.1 kg/ha): 100; Herbicidal activity (Zea mays [6]; 0.025 kg/ha): 15; Herbicidal activity (Zea mays [6]; 0.05 kg/ha): 35
4 | CN(C(=O)C1CC1)c1c(Cl)ccc(C2=C(O)c3ncccc3C(C)(C)S2(=O)=O)c1Cl [Compound I-9, N-[2,6-dichloro-3-(8-hydroxy-5,5-dimethyl-6,6-dioxo-thiopyrano[4,3-b]pyridin-7-yl)phenyl]-N-methyl-cyclopropanecarboxamide] | – | – | – | – | – | – | – | – | – | – | – | – | – | – | – | – | – | – | – | – | Herbicidal activity (Polygonum convolvulus [7]): 95; Herbicidal activity (Setaria viridis [8]): 95; Herbicidal activity (Stellaria media; 0.063 kg/ha): 100; plant injury at 63 g/ha (Zea mays [1]; 0.063 kg/ha): 5%
5 | CC(=O)N(C)c1c(Cl)ccc(C2=C(O)c3ncccc3CS2(=O)=O)c1Cl [Compound I-5, N-[2,6-dichloro-3-(8-hydroxy-6,6-dioxo-5H-thiopyrano[4,3-b]pyridin-7-yl)phenyl]-N-methyl-acetamide] | 10 | 70 | 80 | 90 | 90 | 100 | 95 | 55 | 85 | 90 | 98 | 98 | 98 | 90 | 95 | 100 | 90 | 100 | 100 | 25 | Herbicidal activity (Amaranthus retroflexus; 0.125 kg/ha): 98; Herbicidal activity (Chenopodium album): 98; pest or weed control at 125 g/ha (Echinocloa crus-galli [2]; 0.125 kg/ha): 95%; Herbicidal activity (Lolium Multiflori; 0.05 kg/ha): 55; Herbicidal activity (Lolium Multiflori; 0.1 kg/ha): 80; Herbicidal activity (Polygonum convolvulus [4]; 0.025 kg/ha): 35; Herbicidal activity (Polygonum convolvulus [4]; 0.05 kg/ha): 45; Herbicidal activity (Polygonum convolvulus [4]; 0.1 kg/ha): 80; Herbicidal activity (Setaria viridis [5]; 0.025 kg/ha): 90; Herbicidal activity (Setaria viridis [5]; 0.05 kg/ha): 90; Herbicidal activity (Setaria viridis [5]; 0.1 kg/ha): 90; Herbicidal activity (Zea mays [6]; 0.025 kg/ha): 15; Herbicidal activity (Zea mays [6]; 0.05 kg/ha): 45
